Columns and labels:
mice = assay: Head-twitch response (HTR) in mice; type: in vivo
Description: Head twitch response (HTR) experiments. C57BL/6J Mice (9-10 weeks old) are housed following an IACUC approved protocol. The mice are habituated in the test cage for at least 30 min, injected intraperitoneally with compound (injection volume 5 ml/kg), returned to the empty test cage, and filmed for 20 minutes. Each video is scored for the number of head-twitches by a trained observer blinded to treatment condition.

5HT2A sensor [1] = type: cell-based
5HT2A sensor [2] = type: cell-based; remark: listed apart in the source

Row | SMILES | head-twitch response (HTR) (mice) | activation of the 5HT2A sensor assay in agonist mode (5HT2A sensor [1]) | competition with 5-HT in the 5HT2A sensor assay in antagonist mode (5HT2A sensor [2])
1 | COc1ccc2[nH]cc(CCN(C)C)c2c1 [Compound 5-MeO-DMT] | robust, dose-dependent head-twitch response | activate the 5HT2A sensor assay in agonist mode | 
2 | COc1ccc2c(CCN(C)C)c[nH]c2c1 [Compound 6-MeO-DMT] | does not produce a HTR | do not activate the 5HT2A sensor assay in agonist mode | compete off 5-HT
